The record followed here is EP0155872A1, “Process for reducing the lignin content of plants, and compositions for putting it into use” (priority 1984, dated 1985).

Where “and” joins values, the source holds several entries; their conditions need not be identical. Identical values can stand only once.

One data set has as its system plants de mais. In words: Soluble phenolic compounds of treated maize plants. Type of data set: in vivo. To be noted: plants âgés de 30 jours, 80 µM; for FLAVONOIDES / PHENOLS SIMPLES: mean of 3. Here is the method:
(§1) Les différentes études dont les résultats sont rapportés ci-après ont été réalisées à partir de plants de mais âgés de 30 jours et traités par l'OHPAS et le NH2PAS à la concentration de 80 µM.
Le traitement des plants par les inhibiteurs ne modifie pas les teneurs en ces composés comme le montrent les résultats rapportés dans le tableau 6 ci-après. Cependant, on constate une baisse importante (40% avec l'OHPAS) des quantités de flavonoïdes.

The test system of the next data set is CCR. In words: Inhibition of cinnamoyl:CoA reductase (CCR). Type of data set: biochemical.
The test system of data set [1] is fractions de xylème de peuplier. Kind of data set: Incorporation of cinnamic acid (14C3) into lignins by isolated poplar xylem fractions. Format: cell-based. To be noted: for Taux de radio-activité incorporé dans les lignines (%) / Radioactivité absorbée (µCi/essai) / Radioactivité incorporée dans les lignines (µCi/essai): 30 h; for Radioactivité absorbée (µCi/essai) / Radioactivité incorporée dans les lignines (µCi/essai): mean of 3; for inhibition at 200 µM / inhibition at 1000 µM: relative to % incorporated in the control = 100. How it is done:
Les tissus de xylème isolés (300 mg par essai) sont mis en suspension dans des fioles d'erlenmeyer (25ml), bouchées par du coton cardé contenant : • - du tampon Tris/HCl, O,lM, pH 7,5 (qsp Sml) maintenant le pH entre 7 et 8, • - du Dextran T40 (25 g/1) utilisé comme agent osmotique, ne constituant pas une source de carbone pour la cellule végétale, • - du mercaptoéthanol (O,lmM), antioxydant qui empêche un brunissement très rapide des tissus, • - de l'éther monométhylique de l'éthylène glycol (EMMEG) (50 µl) ou des inhibiteurs solubilisés dans ce polyol (5^0 µ1), • - de l'acide cinnamique (^14C3) (2,5 µCi).
Les fioles sont palcées à 26°C, sous agitation orbitale (agitateur New Brunswick modèle G 10,100 rpm) et sous un éclairement de 4000 lux pendant 30 h. La radioactivité incorporée par les lignines est alors estimée à partir de "poudre alcool-benzène" obtenu par extraction à l'alcool-benzène des fractions tissulaires lyophilisées et réduites en poudre.
Afin de mesurer l'absorption de l'acide cinnamique par les fractions tissulaires et de corriger d'éventuelles différences d'absorption selon les essais, une fraction aliquote du milieu d'incubation (50 µl) est prélevée à différents temps et la radioactivité estimée au compteur à scintillation liquide.
La mesure de la radioactivité libérée sous forme de ^14CO2 après combustion totale des "poudres alcool-benzène" révèle qu'en présence du OHPAS ou du NH2PAS, on observe une baisse de la radioactivité retrouvée dans les lignines. Ainsi, ces inhibiteurs entraînent à la concentration de lmM, une inhibition de 40 à 70% de la synthèse des lignines radioactives. Ces résultats sont rapportés dans le tableau 3 ci-après : […]

Another data set concerns plants de maïs. Kind of data set: Cell-wall polysaccharide content of treated maize plants. Format: in vivo. To be noted: plants âgés de 30 jours; 80 µM. How it is done:
as §1
Le dosage de l'ensemble des polysaccharides pariétaux mais également de la fraction cellulosique n'a révélé aucune différence significative entre les plants témoins et les plants traités.

Another data set relates to tiges de peuplier. Kind of data set: Incorporation of cinnamic acid (14C3) into lignins in cut poplar stems. The following applies: 96 heures de métabolisation, read-out: inhibition de l'incorporation de l'acide cinnamique dans le polymère. Type of data set: in vivo. From the text: Afin de vérifier chez des tiges de peuplier l'action de l'OHPAS et du NH2PAS, on réalise des incorporations d'acide cinnamique (5 yCi) à des rameaux comportant 12 entrenoeuds selon la technique de la tige sectionnée décrite par BOUDET,dans C.R. Acad. Sci.Paris, p. 1966-1968, 269, 1969. La radioactivité des lignines est mesurée après 96 heures de métabolisation.
Lorsque la métabolisation est effectuée en présence du OHPAS et du NH2PAS, on observe une diminution de la radioactivité incorporée dans les lignines. Ainsi, l'OHPAS, à la concentration de 160 µM inhibe de 46% l'incorporation de l'acide cinnamique dans le polymère. Bien que les concentrations en inhibiteurs soient plus faibles, l'effet des inhibiteurs apparaîtsemanifester de façon plus nette-pour une métabolisation de plus longue durée.

Another data set has as its target T1, CAD (Populus deltoides, UniProt P31657).
T1 sequence (P31657 1-357): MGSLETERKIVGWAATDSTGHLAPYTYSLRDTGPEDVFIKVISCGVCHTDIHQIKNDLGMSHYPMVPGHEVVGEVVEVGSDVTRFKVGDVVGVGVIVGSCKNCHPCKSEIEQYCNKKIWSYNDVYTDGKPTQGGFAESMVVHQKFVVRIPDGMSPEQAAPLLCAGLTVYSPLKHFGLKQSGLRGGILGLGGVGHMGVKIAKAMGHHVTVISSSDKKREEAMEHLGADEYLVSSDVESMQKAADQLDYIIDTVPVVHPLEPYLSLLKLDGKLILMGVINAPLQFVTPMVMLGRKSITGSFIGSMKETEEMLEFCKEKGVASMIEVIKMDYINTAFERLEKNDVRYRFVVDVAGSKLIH
In words: Specificity of the inhibitors among the enzymes tested. Format: biochemical.

As for `CC(C)(C)OC(=O)C[S+]([O-])Nc1ccccc1N` (centres unmarked) [composé 5, N-(o-Amino phényl)Sulfinamoyl Acétate de tertiobutyle], in the data set with plants de mais, the “% PERTE (flavonoïdes)” value came out at 48%, the “% PERTE (phénols simples)” value is reported as 0%, the FLAVONOIDES was 25 ± 14 mg d'acide gallique par g de matériel and the “PHENOLS SIMPLES” value was 101 ± 10 mg d'acide gallique par g de matériel. For the same molecule, the “inhibition de la CCR” value in the data set on CCR is “inhibe également la CCR”. Moreover, in data set [1] (0,2mM), the “Taux de radio-activité incorporé dans les lignines (%)” value turned out to be 32%, the “Radioactivité absorbée (µCi/essai)” value was 0,80 µCi/essai, the “Radioactivité incorporée dans les lignines (µCi/essai)” value is 0,26 µCi/essai and the inhibition at 200 µM was 4%. In data set [1] (1mM), the “Taux de radio-activité incorporé dans les lignines (%)” value came out at 20%, the “Radioactivité absorbée (µCi/essai)” value is listed as 0,80 µCi/essai, the “Radioactivité incorporée dans les lignines (µCi/essai)” value is 0,16 µCi/essai and the inhibition at 1000 µM amounted to 40%. The “synthèse de la fraction polysaccharidique de la paroi” value in the data set with plants de maïs is reported as “n'apparaîssent pas affecter”.

As for `CC(C)(C)OC(=O)C[S+]([O-])Nc1ccccc1O` (centres unmarked) [composé 2, N-(o -hydroxy phényl)sulfinamoyl acétate de tertiobutyle], the inhibition at 160 µM with tiges de peuplier was determined as 46%. In addition, in the data set with plants de mais, the “% PERTE (phénols simples)” value is reported as 0%, the FLAVONOIDES is 28 ± 11 mg d'acide gallique par g de matériel and the “PHENOLS SIMPLES” value is reported as 107 ± 8 mg d'acide gallique par g de matériel. Also, in the data set on plants de mais (listed as OHPAS), the “% PERTE (flavonoïdes)” value is 40% and 42%. In data set [1] (0,2mM), the “Taux de radio-activité incorporé dans les lignines (%)” value came to 24%, the “Radioactivité absorbée (µCi/essai)” value is 0,75 µCi/essai, the “Radioactivité incorporée dans les lignines (µCi/essai)” value was 0,18 µCi/essai and the inhibition at 200 µM is 17%. Moreover, in data set [1] (1mM), the “Taux de radio-activité incorporé dans les lignines (%)” value is on record as 10%, the “Radioactivité absorbée (µCi/essai)” value is reported as 0,75 µCi/essai, the “Radioactivité incorporée dans les lignines (µCi/essai)” value is reported as 0,075 µCi/essai and the inhibition at 1000 µM is 70%. Besides, the “synthèse de la fraction polysaccharidique de la paroi” value in the data set with plants de maïs is recorded as “n'apparaîssent pas affecter”. The “spécificité en regard des enzymes testées” value at CAD is “spécificité stricte vis-à-vis de la CAD”.
